From US20240336562A1, “COMPOUND SERVING AS NLRP3 INHIBITOR” (Hangzhou Innogate Pharma Co., Ltd., priority 2021, published 2024)

Key:
NLRP3 = NLRP3 (Homo sapiens (Human), UniProt Q96P20); assay: Inhibitory activity of NLRP3: IL1β induction in THP1 cells (PMA, LPS, nigericin) and IL1β ELISA detection; type: cell-based; settings: THP-1, 300 nM compound, LPS 500 ng/mL + nigericin 10 μg/mL
Protocol: Study of the Compound's Inhibitory Activity of NLRP3 Step 1: IL1 β Induction 60 μL/well polylysine was added to 96-well cell culture plate and incubated at 37° C. for 30 min. Discard the solution in the plate and wash the cell culture plate twice with PBS. THP1 (50000 cells/well/95 μL) was planted in cell culture plates, 5 μL of PMA was added to each well (the final concentration was 50 ng/mL), and cultured overnight in a thermostat incubator at 37° C. The supernatant was gently sucked out, the cell culture plate was washed with PBS twice, and 80 μL cell culture medium without FBS, followed by 5 μL/well LPS (final concentration 500 ng/mL) was added to each well. The plate was cultured in a thermostat incubator at 37° C. for 3 hours. […] Then 10 μL/well nigericin (final concentration 10 μg/mL) was added to the cell plate and cultured in a thermostat incubator at 37° C. for 0.5 hours. The cell supernatant was collected into a new cell plate and frozen at -80° C. for future use. Step 2: IL1 β detection IL1β antibody was diluted 60 times with coating buffer, and 100 μL of diluted antibody was added to each well of ELISA plate, and incubated at 4° C. overnight. Discard the liquid in the ELISA plate and wash it 4 times with eluent. Add 300 μL/well reagent diluent and incubate the ELISA plate at room temperature for 1.5 hours. Wash the plate with eluent for four times. […] Wash the plate with eluent for four times. Each well was added with 100 μL detection antibody and incubated at 37° C. for 2 h. Wash the plate with eluent for four times. Add 100 μL of HRP labeled secondary antibody to each well. Incubate at 37° C. for 1 hour. Wash the plate with eluent for four times. Add 100 μL of A+B substrate per well. Incubate at 37° C. for 30 minutes. Add 100 μL STOP solution per well. Gently shake the plate for a few seconds. Read the absorption value at 450 nm on the EnVision multifunction reader and calculate the Inhibitory rate according to the following formula: Inhibition %=([…]). […] The log value of concentration was taken as the X-axis and the percentage inhibitory rate as the Y-axis. […]

[1] = Pharmacokinetic study in rats after intragastrical administration; type: in vivo; settings: rat, male SD rats, oral 3 mg/kg, plasma
Protocol: Pharmacokinetic Study in Rats
Instruments: XEVO TQ-S LC/MS instrument produced by Waters. All measurement data is collected and processed by Masslynx V4.1 software, and the data is calculated and processed by Microsoft Excel. Using WinNonLin 8.0 software, the statistical moment method was used to calculate the pharmacokinetic parameters. Mainly include kinetic parameters Tmax, T1/2, Cmax, AUClast etc. Column: ACQUITY UPLC BEH C18 (2.1 mm×50 mm, 1.7 μm); column temperature 40° C.; mobile phase A is water (0.1% formic acid), mobile phase B is acetonitrile, flow rate is 0.350 ml/min, gradient elution is adopted, the elution gradient is 0.50 min: 10% B; 1.50 min: 90% B; 2.50 min: 90% B; 2.51 min: 10% B; 3.50 min: stop. Injection volume: 1 μL.
Animals: 3 male SD rats with a weight range of 200-220 g. After purchase, they will be kept in the laboratory of the Experimental Animal Center for 2 days and then used. They will be fasted for 12 hours predose and 4 hours after dosing. Drinking water is free during the test. After the rats were gavage, blood samples were taken according to the established time point.
Solvent: 0.4% ethanol+0.4% Tween80+99.2% (0.5% methylcellulose M450). Preparation of the solution for intragastrical administration: accurately weigh the compound, add it to the solvent, and use ultrasound at room temperature for 5 minutes to completely dissolve the drug, and prepare a 0.3 mg/mL medicinal solution.
Pharmaceutical samples: Generally, multiple samples with similar structures (with a molecular weight difference of more than 2 units) are taken, accurately weighed, and administered together (cassette PK). In this way, multiple compounds can be screened at the same time and their oral absorption rates can be compared. A single administration was also used to study the pharmacokinetics of the drug sample in rats.
After intragastrical administration, blood was taken from the orbit at 0.25, 0.5, 1, 2, 4, 8, 10 and 24 hours. Then take 50 μL of the plasma sample, add 200 μL of acetonitrile (including internal standard control verapamil 2 ng/mL), vortex for 3 min and centrifuge at 20000 ref, 4° C. for 10 min. The supernatant plasma was used for LC-MS/MS analysis.
Accurately weigh the compounds to prepare different concentrations, perform quantitative analysis on mass spectrometry to establish a standard curve, and then test the concentration of the above-mentioned compound in the plasma to obtain the compound concentration at different time points. All measurement data are collected and processed by relevant software, and the statistical moment method is used to calculate the pharmacokinetic parameters (mainly including kinetic parameters Tmax, T1/2, Cmax, AUClast etc).

Sequence of NLRP3 (Q96P20 whole entry): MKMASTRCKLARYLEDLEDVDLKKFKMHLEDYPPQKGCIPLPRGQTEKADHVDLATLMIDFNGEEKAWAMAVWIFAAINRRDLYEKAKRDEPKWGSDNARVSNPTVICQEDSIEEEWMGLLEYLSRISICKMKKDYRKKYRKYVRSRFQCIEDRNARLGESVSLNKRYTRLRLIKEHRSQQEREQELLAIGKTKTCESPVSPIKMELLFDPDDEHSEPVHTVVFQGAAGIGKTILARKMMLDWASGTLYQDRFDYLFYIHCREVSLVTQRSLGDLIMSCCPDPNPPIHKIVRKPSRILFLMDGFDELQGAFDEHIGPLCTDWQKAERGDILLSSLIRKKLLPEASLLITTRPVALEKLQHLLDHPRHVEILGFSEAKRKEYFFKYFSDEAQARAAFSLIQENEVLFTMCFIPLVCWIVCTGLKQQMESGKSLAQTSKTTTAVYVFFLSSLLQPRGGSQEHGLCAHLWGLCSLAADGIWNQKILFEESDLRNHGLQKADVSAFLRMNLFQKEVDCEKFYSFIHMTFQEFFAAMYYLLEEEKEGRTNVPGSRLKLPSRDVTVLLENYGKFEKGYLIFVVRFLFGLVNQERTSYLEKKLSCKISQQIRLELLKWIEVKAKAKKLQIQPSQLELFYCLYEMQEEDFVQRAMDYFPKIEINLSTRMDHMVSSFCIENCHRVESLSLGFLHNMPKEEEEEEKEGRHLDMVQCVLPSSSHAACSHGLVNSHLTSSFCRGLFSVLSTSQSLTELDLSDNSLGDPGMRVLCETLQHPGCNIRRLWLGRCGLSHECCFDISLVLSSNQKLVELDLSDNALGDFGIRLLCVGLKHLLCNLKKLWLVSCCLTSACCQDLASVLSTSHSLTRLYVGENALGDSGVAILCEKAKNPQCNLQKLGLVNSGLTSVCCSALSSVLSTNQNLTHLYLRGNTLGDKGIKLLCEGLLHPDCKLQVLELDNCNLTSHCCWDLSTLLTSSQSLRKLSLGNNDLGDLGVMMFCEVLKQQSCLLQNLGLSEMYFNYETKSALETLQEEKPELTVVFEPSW

Row | inhibition at 0.3 µM (NLRP3) [%] | Structure (SMILES) | Cmax [1] [ng/mL] | Tmax [1] [h] | half-life [1] [min] | AUC(0-t) ([1]; read-out: AUC(0-24)) [ng·h/mL]
1 | > 50 | Cc1cc2c(c(NC(=O)NS(C)(=O)=O)c1-c1ccnc(OCC3=CCN(C)CC3)c1)CCC2 [Compound 1] | – | – | – | –
2 | > 50 | Cc1cc2c(c(NC(=O)NS(=O)(=O)C3CC3)c1-c1ccnc(OCC3=CCCN(C)C3)c1)CCC2 [Compound 6] | – | – | – | –
3 | > 50 | Cc1cc2c(c(NC(=O)NS(=O)(=O)N(C)C)c1-c1ccnc(OCC3=CCCN(C)C3)c1)CCC2 [Compound 7] | – | – | – | –
4 | – | COc1cc(-c2c(C)cc3c(c2NC(=O)NS(=O)(=O)c2ccn(C4CC(=C(F)F)C4)n2)CCC3)ccn1 (stereo not shown) [Compound 22] | 1530 | 1 | 336 | 6710
